# Assay results reported in patent publication US20060111305A1, “Metabolites of certain [1,4]diazepino[6,7,1-ij]quinoline derivatives and methods of preparation and use thereof” (Wyeth, priority 2004, published 2006).
# Read-outs that look alike come from different tables or passages of the source. Marks after values point to notes of the source that are not given here.
# Assays:
# [1] = Rat plasma metabolite profiles after single oral 5 mg/kg [14C]DCDQ; type: in vivo, Sprague-Dawley rats; details: for concentration at 2 h / concentration at 8 h / concentration at 4 h: Sprague-Dawley, rat, plasma, mean n = 3, read-out: Estimated plasma concentration in rats
# Method: Plasma samples were analyzed for metabolite profiles by HPLC. Aliquots of 1.5 mL plasma were mixed with 3.0 mL methanol, placed on ice for about 10 minutes, and then centrifuged. The supernatant was transferred to a clean tube. The protein pellets were extracted once with 3.0 mL methanol. The supernatants from precipitation and extraction of each sample were pooled, mixed, and evaporated at 22° C. under nitrogen in a Zymark TurboVap LV (Caliper Life Sciences, Hopkinton, Mass.) to about 0.3 mL. The concentrated extract was centrifuged, the supernatant volume measured and extraction efficiency was determined by analyzing duplicate 10 μL aliquots for radioactivity. An aliquot of the supernatant (50-200 μL) was analyzed by HPLC with radioactivity flow detection. Plasma extracts were also analyzed by LC/MS.
# A Waters model 2690 HPLC system (Waters Corp., Milford, Mass.) with a built-in autosampler was used for analysis. Separations were accomplished on a Phenomenex Luna C18(2) column (150×2.0 mm, 5 μm) (Phenomenex, Torrance, Calif.). The sample chamber of the autosampler was maintained at 4° C., while the column was at ambient temperature of about 20° C. A variable wavelength UV detector set to monitor 250 nm and a Flo-One β Model A525 radioactivity detector described above were used for data acquisition. The HPLC mobile phase consisted of 10 mM ammonium acetate, pH 4.5 (A) and methanol (B), and was delivered at 0.2 mL/min. Chromatographic condition A was used for dose analysis, while condition B was used for analysis of urine and plasma, brain and fecal extracts.
# [2] = Metabolites of DCDQ identified in dogs by LC/MS analysis (Table 26); type: in vivo, beagle dogs; details: P = plasma, U = urine, B = brain, F = feces
# Description: An Agilent Model 1100 HPLC system (Agilent Technologies, Palo Alto, Calif.) including an autosampler and diode array UV detector was used for LC/MS analysis. The UV detector was set to monitor 200 to 400 nm. For selected LC/MS analysis, radiochromatograms were acquired using a β-Ram model 3 radioactivity flow detector (IN/US Systems Inc., Tampa, Fla.) equipped with a solid scintillant flow cell. LC conditions were the same as the condition B described above.
# The mass spectrometer used for metabolite characterization was a Micromass Q-TOF-2 quadrupole time-of-flight hybrid mass spectrometer (Waters). The mass spectrometer was equipped with an electrospray ionization (ESI) interface and operated in the positive ionization mode. Collision energy settings of 5 and 30 eV were used for full MS and MS/MS scans, respectively. Settings for the mass spectrometer are listed below.
# [3] = Incubation of [14C]DCDQ with rat liver microsomes; type: in vitro ADME, Sprague Dawley rats
# Method: (§1) [^14C]DCDQ was mixed with non-radiolabeled DCDQ (1:3 or 1:5) in the incubations. Microsomal incubations consisted of [^14C]DCDQ, magnesium chloride (10 mM) and liver microsomes incubated in 0.5 mL of 0.1 M potassium phosphate buffer, pH 7.4. [^14C]DCDQ (20 μL) in water was added to the incubation tubes containing buffer, magnesium chloride solution and microsomes. After mixing, the tubes were pre-incubated for 2 minutes in a shaking water bath at 37° C. The reactions were initiated by the addition of UDPGA or the NADPH regenerating system. UDPGA was added to incubations as a 50 μL aliquot of a 20 mM solution in water, to give a final concentration of 2 mM. An NADPH regenerating system (30 μL) was added to incubations to evaluate CYP450-mediated metabolism. The NADPH regenerating system consisted of glucose-6-phosphate (2 mg/mL), glucose-6-phosphate dehydrogenase (0.8 units/mL) and NADP^+ (2 mg/mL). Control incubations were conducted under the same conditions, but without the NADPH generating system, UDPGA or microsomes. All incubations were performed in duplicate. Incubations were stopped by the addition of 0.5 mL ice-cold methanol. Samples were vortex-mixed. Denatured proteins were separated by centrifugation at 4300 rpm and 4° C. for 10 minutes (Model T21 super centrifuge, Sorvall). The protein pellets were extracted with 0.5 mL of methanol. The supernatant was combined for each sample, mixed and evaporated to a volume of about 0.3 mL under a nitrogen stream in a Zymark TurboVap LV evaporator (Caliper Life Science, Hopkinton, Mass.). The concentrated sample was centrifuged and aliquots were radioassayed and analyzed by HPLC. This method recovered an average of 92.1% of the radioactivity from the reaction mixture.
# (§2) To evaluate species differences in cytochrome P450- and UGT-mediated metabolism, [^14C]DCDQ was incubated for 20 minutes with 0.5 mg/mL liver microsomal proteins from mice, rats, dogs or humans in the presence of the NADPH regenerating system or UDPGA. The assay conditions were the same as described above, and DCDQ concentrations were 12 μM and 56 μM for cytochrome P450- and UGT-mediated metabolism, respectively.
# (§3) A Waters model 2690 HPLC system (Waters Corp., Milford, Mass.) with a built-in autosampler was used for analysis. Separations were accomplished on a Phenomenex Luna C18(2) column (2×150 mm, 5 μm) (Phenomenex, Torrance, Calif.) coupled with a filter (4×2 mm) cartridge. A variable wavelength UV detector set to monitor 250 nm and Flo-One β Model A525 radioactivity flow detector (Perkin Elmer) with a 250 μL LQTR flow cell were used for data acquisition. The flow rate of Ultima Flow M scintillation fluid was 1 mL/min, providing a mixing ratio of scintillation cocktail to mobile phase of 5:1. […]
# [4] = Incubation of [14C]DCDQ with mouse liver microsomes; type: in vitro ADME, CD-1 mice
# Method: as §1, §2, §3
# [5] = NADPH regenerating system, 12 μM DCDQ, 20 min
"concentration at 2 h ([1]; female, 2 hr) [ng/mL]","concentration at 8 h ([1]; female, 8 hr) [ng/mL]","concentration at 2 h ([1]; male, 2 hr) [ng/mL]","concentration at 4 h ([1]; male, 4 hr) [ng/mL]","concentration at 8 h ([1]; male, 8 hr) [ng/mL]","Chromatographic distribution of radioactivity in rat plasma ([1]; female, 2 hr, mean n = 3)","Chromatographic distribution of radioactivity in rat plasma ([1]; female, 8 hr, mean n = 3)","Chromatographic distribution of radioactivity in rat plasma ([1]; male, 2 hr, mean n = 3) [%]","Chromatographic distribution of radioactivity in rat plasma ([1]; male, 4 hr, mean n = 3) [%]","Chromatographic distribution of radioactivity in rat plasma ([1]; male, 8 hr, mean n = 3) [%]",Matrix [2],"metabolite detected in microsomal incubation [3, 5]","metabolite detected in microsomal incubation [4, 5]","Estimated plasma concentration in rats ([1]; female, 2 hr, mean n = 3)","metabolite detected in microsomal incubation ([3]; UDPGA, 56 μM DCDQ)","metabolite detected in microsomal incubation ([4]; UDPGA, 56 μM DCDQ)",SMILES
12.6,6.52,88.4,59.7,41.9,2.0^d %,1.9^d %,14,9.1,8.9,"P, U",not detected,not detected,,,,"OC1CN2C[C@@H]3CCC[C@@H]3c3cccc(c32)CN1 (some centres unmarked) [Metabolite M1, hydroxy DCDQ]"
,4.4,32.3,22.6,20,BQL,1.5^e %,5.2,3.4,4.3,"P, U, F",observed,only metabolite detected,BQL,,,"OC1[C@@H]2CCC[C@@H]2c2cccc3c2N1CCNC3 (some centres unmarked) [Metabolite M2, hydroxy DCDQ]"
35.6,17.5,63.6,62.1,53,5.4^d %,5.6%,10,9.4,12,"P, U",,,,,,"O=C1CC[C@@H]2c3cccc4c3N(CCNC4)C[C@H]12 [Metabolite M7, 17-keto DCDQ]"

# Continued, compound first:
SMILES,"concentration at 2 h ([1]; female, 2 hr) [ng/mL]","concentration at 8 h ([1]; female, 8 hr) [ng/mL]","concentration at 2 h ([1]; male, 2 hr) [ng/mL]","concentration at 4 h ([1]; male, 4 hr) [ng/mL]","concentration at 8 h ([1]; male, 8 hr) [ng/mL]","Chromatographic distribution of radioactivity in rat plasma ([1]; female, 2 hr, mean n = 3)","Chromatographic distribution of radioactivity in rat plasma ([1]; female, 8 hr, mean n = 3)","Chromatographic distribution of radioactivity in rat plasma ([1]; male, 2 hr, mean n = 3) [%]","Chromatographic distribution of radioactivity in rat plasma ([1]; male, 4 hr, mean n = 3) [%]","Chromatographic distribution of radioactivity in rat plasma ([1]; male, 8 hr, mean n = 3) [%]",Matrix [2],"metabolite detected in microsomal incubation [3, 5]","metabolite detected in microsomal incubation [4, 5]","Estimated plasma concentration in rats ([1]; female, 2 hr, mean n = 3)","metabolite detected in microsomal incubation ([3]; UDPGA, 56 μM DCDQ)","metabolite detected in microsomal incubation ([4]; UDPGA, 56 μM DCDQ)"
"c1cc2c3c(c1)[C@H]1CCC[C@H]1CN3CCNC2 [DCDQ, (9aR,12aS)-4,5,6,7,9,9a,10,11,12,12a-decahydro-cyclopenta[c][1,4]diazepine[6,7,1-ij]quinoline, reference compound]",132,49.4,86.9,90.8,58.7,20%,15%,14,14,13,"P, U, F",,,,,
"[O-][N+]12CCN=Cc3cccc(c31)[C@H]1CCC[C@H]1C2 (some centres unmarked) [Metabolite M5, DCDQ imine N-oxide]",,,,,,,,,,,,not mouse or rat,not mouse or rat,,,
"O=C(O)[C@H]1O[C@@H](OC(=O)N2CCN3C[C@@H]4CCC[C@@H]4c4cccc(c43)C2)[C@H](O)[C@@H](O)[C@@H]1O [Metabolite M6, carbamoyl glucuronide of DCDQ]",,,,,,,,,,,"P, U",,,,not mouse or rat,not mouse or rat
